In data set [1] the test system is MCF7. Briefly: Cytotoxicity in MCF7. Particulars: Homo sapiens, MCF7; Table 2; read-out: IC50 in cancer cell lines, MCF7. The class given is cell-based. As to the method:
(§1) Ligase IV specificity of the compounds of the present invention inside the cells were also determined using Ligase IV knock out (KO) cell line N114 compared to the wild type Nalm6 (Table 2, FIGS. 5C, D, E and F). […] Table 1 showing IC50 of SCR7 derivatives in cancer cell lines Nalm6 and HeLa. IC50 was calculated using GraphPad Prism software from the percentage of viable cells following treatment with the compounds at 48 h. Table 2 showing IC50 of SCR116 and SCR132 in a panel of 16 cancer cell lines.

The subject of data set [2] is rat testicular extracts. Put plainly: Inhibition of end joining of rat testicular extracts (NHEJ). Type of data set: biochemical. Particulars: for Inhibition of end joining (in words): 200 μM; for Inhibition of end joining (no joined product observed): 500 μM, rat testicular extract; for End joining after Ligase IV added back to inhibited testicular extract: complementation with purified Ligase IV/XRCC4. As to the method: The compounds of the present invention were tested for their effects on inhibition of DNA end joining reactions using rat tissue extracts and purified DNA Ligase IV/XRCC4. Rat testicular extracts were prepared from testes of 4-6 week old male Wistar rats, Rattus norvegicus using ammonium sulphate precipitation method. To determine end joining of cell-free extracts, radiolabeled double-stranded (ds) oligomeric DNA substrate was incubated with rat testicular extract at 25° C. in suitable NHEJ buffer. Extracts were incubated for 30 min with the compounds of Formula I (01-41, 500 μM) as prepared in Example 1, and then radioactive DNA substrate was added to the reaction mixture and incubated for 1 h at 25° C. Reactions were stopped using EDTA, and products were purified using phenol: chloroform extraction and loaded on denaturing polyacrylamide gel. […] Joining efficiency was calculated using the intensity of product bands (150 bp or higher) in individual lanes in Multi Gauge software as compared to control (lanes 2,3). Lane 1 denotes radioactive substrate in absence of protein or inhibitor, while M denotes radiolabeled 50 bp DNA ladder.
Effects of these compounds on NHEJ and Ligase IV mediated joining were evaluated (FIG. 4A-K). The reactions were terminated by EDTA (10 mM), products were purified using phenol/chloroform, precipitated with chilled ethanol and glycogen, and resolved on 8% denaturing PAGE. The gel was dried, exposed, and signal was detected using phosphor Imager FLA9000 (Fuji, Japan), and quantified in MultiGauge software expressed as Photo Stimulated Luminescence Units (PSLU). Inhibition of end joining was reported at 200 μM and 100 μM, respectively for SCR116 and SCR132 (FIGS. 4A, B, C and D), with >50% inhibition at 200 and 100 μM concentrations, respectively. […] FIG. 4K depict the purification profile of Ligase IV and XRCC4. Further FIGS. 4L-M represent inhibition of end joining catalysed by (FIG. 4L) purified Ligase III/XRCCI in presence of SCR116 and SCR132 (50, 100, 200, 500, 1000 μM) and (FIG. 4M) by purified Ligase I in presence of increasing concentrations of SCR116 and SCR132 (10, 50, 100, 200, 500, 1000 μM).

In data set [3] the test system is Molt4 derived xenograft. Put plainly: Mouse xenograft model, Molt4. The class given is in vivo. Particulars: for Tumor volume: alternate days; for Survival: tumor control animals died by day 18. As to the method:
Effect of the compounds was further evaluated in mouse xenograft model generated using Ligase IV high human leukemic cell line, Molt4. Oral doses of SCR116 and SCR132 at 10 mg/kg and 15 mg/kg respectively were administered on alternate days.

The nature of data set [4]: 10 days dose ranging toxicity study. The class given is in vivo, Swiss albino mice. Particulars: for Hemoglobin, MCHC, total leukocyte count and platelets: after 10 days of dose-ranging study; for Body weight: oral 80, 160 and 320 mg/kg b.wt., male and female, days 1, 8, 15, 22. As to the method:
FIG. 12 depicts 10 days dose ranging toxicity studies of SCR116 and SCR132 (A) Body weight analyses of mice on 1, 8, 15 and 22 days after oral administration of low, medium and high concentrations of SCR116 and SCR132 (80, 160 and 320 mg/kg b.wt. respectively) in male. Mice treated with methyl cellulose served as vehicle control; and (B) Body weight analyses of mice on 1, 8, 15 and 22 days after oral administration of SCR116 and SCR132 (80, 160 and 320 mg/kg b.wt. respectively) in female.
(§2) FIG. 13 depicts the blood parameters analysis of Swiss albino mice after 10 days of dose-ranging study after treating with SCR116 and SCR132. A. RBC (n=3). B. Hemoglobin (n=3). C. MCHC (n=3). D. Total leukocyte count (n=3). E. Platelet count (n=3) (ns: not significant, *p<0.05: **p<0.005).

The test system of data set [5] is SUDHL8. Briefly: Cytotoxicity in SUDHL8. The class given is cell-based. To be noted: Homo sapiens, SU-DHL-8; Table 2; read-out: IC50 in cancer cell lines, SUDHL8. As to the method:
as §1

The conditions of data set [6]: mouse, in vivo, po.
Description: The bioavailability of the compounds of the present disclosure were analysed in mice serum at different time points (0.5, 1, 2, 4, 6, 8, 10, 12, 24 and 48 h) by HPLC at 232 nm wavelength (FIGS. 10N-P).
The subject of data set [7] is Molt4. Put plainly: Cytotoxicity in Molt4. To be noted: Homo sapiens, MOLT-4; Table 2; read-out: IC50 in cancer cell lines, Molt4. The class given is cell-based, human. As to the method: as §1
Data set [8] concerns 53BP1 foci in N114. Put plainly: 53BP1 foci in N114 cells. Particulars: 24 h, SCR116 2, 5 μM, SCR132 1, 2 μM. The class given is cell-based. As to the method: FIG. 8(A-B) depicts accumulation of DSBs inside cells following treatment with the compounds. A. Representative images for HeLa cells subjected to neutral comet assay following treatment with SCR116 and SCR132 for 24 h. […] FIG. 8C, D are representative images for Nalm6 cells (C) and N114 cells (D) following treatment with SCR116 and SCR132 for 24 h. and FIG. 8E, F are scatter plot depicting quantification of percentage of 53BP1 foci treated with SCR116 (2, 5 μM) and SCR132 (1, 2 μM) in Nalm6 and N114.

Data set [9] concerns B cells (CD19+) and T cells (CD3+). Briefly: B and T cells after 28 days SCR116 treatment. Type of data set: in vivo, swiss albino mice. To be noted: oral 80, 160 and 320 mg/kg b.wt. As to the method: FIG. 14(A-B) depicts the evaluation of effect on B cells after SCR 116 treatment for 28 days in normal swiss albino mice A. After oral administration of low, medium, and high concentrations of SCR116 (80, 160 and 320 mg/kg b.wt. respectively). B is showing quantitation of the total B cell population (CD19+). (ns: not significant, *p<0.05: **p<0.005), in accordance with an implementation of the present disclosure.
FIG. 15(A-B) depicts the evaluation of the effect on T cells after SCR116 treatment for 28 days in normal swiss albino mice. A. After oral administration of low, medium and high concentrations of SCR116 (80, 160 and 320 mg/kg b.wt. respectively). B. is showing the quantitation of the total T cell population (CD3+). (ns: not significant, *p<0.05: **p<0.005), in accordance with an implementation of the present disclosure.
as §2

`Nc1nc(S)nc(O)c1/N=C/c1sc(Cl)nc1Cl` [Compound 32, (E)-6-amino-5-(((2,4-dichlorothiazol-5-yl)methylene)amino)-2-mercaptopyrimidin-4-ol]: the IC50 (as a rule, the concentration needed to halve the response being measured) in data set [1] is 5 µM. For the same compound, in data set [2], the “Inhibition of end joining (in words)” value is “complete inhibition of end joining”, the “Inhibition of end joining (no joined product observed)” value is on record as “showed inhibition of end joining” and the “End joining after Ligase IV added back to inhibited testicular extract” value is reported as “joining efficiency was restored”. Further, in data set [3] (oral 15 mg/kg), the Tumor volume entry is recorded as “effectively reduced the tumor volume” and the Survival result is listed as “survived the entire experimental period”. Further, in [4], the “Hemoglobin, MCHC, total leukocyte count and platelets” value was “no significant difference in hemoglobin, MCHC, total leukocyte count and platelets”; the Body weight result is reported as “no significant change in body weight”. For the same compound, the IC50 in data set [5] was determined as 0.81 µM. The “Course of serum level” value in data set [6] is “became stabilized between 4 h and 6 h”. In addition, the IC50 in [7] was 1.88 µM. Further, the 53BP1 foci entry in [8] is on record as “no significant increase in the number of 53BP1 foci”.

As for `Nc1nc(S)nc(O)c1/N=C/c1ccc([N+](=O)[O-])s1` [Compound 16, (E)-6-amino-2-mercapto-5-(((5-nitrothiophen-2-yl)methylene)amino)pyrimidin-4-ol], the IC50 in data set [1] is 10 µM. Moreover, in data set [2], the “Inhibition of end joining (in words)” value is given as “complete inhibition of end joining”, the “Inhibition of end joining (no joined product observed)” value is “showed inhibition of end joining” and the “End joining after Ligase IV added back to inhibited testicular extract” value is on record as “joining efficiency was restored”. Also, in data set [9], the “Production of B cells” value was “no significant changes” and the “Production of T cells” value is reported as “no significant changes”. In data set [3] (oral 10 mg/kg), the Tumor volume result is listed as “effectively reduced the tumor volume” and the Survival entry was “survived the entire experimental period”. In data set [4], the “Hemoglobin, MCHC, total leukocyte count and platelets” value is “no significant difference in hemoglobin, MCHC, total leukocyte count and platelets”; the Body weight result is given as “no significant change in body weight”. The RBC count result in data set [4] (low doses, values still within the normal range) is given as “significant difference in RBC count”. Also, in data set [5], the half-inhibitory concentration (IC50) amounted to 0.685 µM. The “Course of serum level” value in [6] is “continued to increase till 10 h”. Further, the concentration for half-maximal inhibition (IC50) in [7] came out at 4.89 µM. In data set [8], the 53BP1 foci entry was “no significant increase in the number of 53BP1 foci”.

The values above are taken from patent US20250100977A1, “MERCAPTOPYRIMIDINE COMPOUNDS THAT INHIBIT NONHOMOLOGOUS END JOINING AND METHODS THEREOF” (INDIAN INSTITUTE OF SCIENCE, priority 2021, published 2025).
